Where two headings read alike, the source gives them in different places. Square brackets hold non-standard residues; d marks the D form. Peptide text beside a SMILES is read from it. Gly(N(CH2)2(3-indolyl)) = O=C(O)CNCCc1c[nH]c2ccccc12; Nspe = C[C@H](NCC(=O)O)c1ccccc1; Nlys = NCCCCNCC(=O)O
What was measured:
[1] = system: MRC-5 human lung fibroblast cells; format: cell-based
Description: 4. Cell culture and cytotoxicity test using MTS assay
(Seoul, South Korea), human keratinocytes (HaCaT) were provided by the Skin Research Institute R&D Center of Amore Pacific Company (Yongin, South Korea). All cells were grown in Dulbecco's modified Eagle’s medium (DMEM) supplemented with 10% fetal bovine serum at 37 °C in an atmosphere containing 5% CO2. The 3-(4,5-dimethylthiazol-2- […]
assays were used to determine the effects of peptoids on cell growth.[4] Aliquots (100 µL) of media containing 1.3×10^4 MRC-5 cells/mL or 3×10^4 HaCaT cells/mL were distributed into each well of a 96-well plate (Eppendorf, Hamburg, Germany). The cells were allowed to attach and were grown in a humidified atmosphere containing 5% CO2 at 37 °C for 24 h.
When the cell density reached approximately 70% confluency, the medium was replaced with serial dilutions of the peptoid stock in DMEM and incubated for an additional 24 h. At this point, 20 µL of the CellTiter 96 aqueous non-radioactive cell proliferation assay reagent (Promega, Madison, WI, USA), which contains the tetrazolium compound, was added to each well. Plates were incubated for 4 h at 37 °C to allow time for metabolism. The MTS-formazan products in viable cells were measured at 490 nm using a microplate reader, and the percentage of cell viability (%) was calculated by comparing readings to the values of untreated wells. Percentage values of cell viability were calculated as A/(A control)×100, where A is the absorbance of the test well and A control is the average absorbance of wells containing untreated cells. […]

S. aureus MRSA C623 = format: cell-based
[2] = S9 fraction stability assay; format: in vitro ADME; settings: NADPH, 100 mM Tris-HCl pH 7.4, […] MgCl2, 37 °C, 24 h incubation, HPLC or LC-MS, compared to pexiganan
Description: 200 μL NPN dye was added to wells of a 96 well plate to produce a final concentration of 10 μM, and the background fluorescence was recorded (λex = 350 nm, λem = 420 nm). Aliquots of peptoids were added to the well, and fluorescence was recorded as a function of time until there was no further increase in fluorescence. Increases of the permeability of the outer membrane after the addition of peptoids was reflected by increased fluorescence values as a result of NPN incorporation into the membrane.
The permeability of the inner membrane was determined using E. coli ML-35 cells […]
The intact bacterial inner membrane is non-permeable to o-nitrophenyl-β-D-galactopyranoside (OPNG), a chromogenic substrate of the β-galactosidase.
Following damage to the inner membrane, OPNG enters the cells and is metabolized by β-galactosidase creating a chromogenic […]. […] The hydrolysis of ONPG and generation of o-nitrophenol over time were monitored as absorbance change at 405 nm following the addition of peptoids.
The resistance of peptoids against metabolic enzyme degradation was measured by an S9 fraction assay. […] Quenched samples were centrifuged for 5 minutes at 1200 rpm and analyzed by analytical HPLC or LC-MS.
Protein extraction and quantification using Bradford assay […]

E. coli ATCC 25922 = assay: Killing kinetics; format: cell-based; settings: 4 × MIC, E. coli ATCC 25922, MHB2, 37 °C, CFU counting, triplicates
Description: structure of peptoids. SAXS data on peptoids in aqueous environment at different peptoid concentrations (indicated in legends), plotted together with best fit. a) 11 b) 29.
14. In vitro biological assays
The kinetics of antimicrobial activity against E. coli (ATCC 25922) were assessed at a […]
Briefly, an overnight culture of bacteria was diluted at mid log-phase bacteria (2–5 × 10^5 cfu/mL) and incubated with peptoid with desired concentration in MHB2. The bacterial suspension was added to a 96-well polypropylene u- bottomed plate containing the peptoid. The plate was incubated without shaking at 37 °C for 4 h. Samples (20 μl) were taken at time 0.5, 1, 2 and 4 h and diluted in ice PBS buffer from which 100 μl was plated on LB agar plates. The plates were incubated for 18–24 hours at 37 °C and colony forming units (CFU) were counted. The experiment was conducted triplicates, and a curve was plotted between CFU and time (h).
The ability of peptoids to increase the permeability of the outer membrane of Gram-negative bacteria was determined by measuring the incorporation of the NPN fluorescent dye into the outer membrane of E. coli ATCC 25922. Bacterial cells were suspended to a final concentration of OD600 = 0.05 in 5 mM HEPES buffer, pH 7.2, containing 5 mM KCN. Then […]
(1 picture or pasted object on this page, not shown here)

Compound | LC50 MRC-5 [1] [µM] | MIC S. aureus MRSA C623 (S. aureus MRSA C623) [µM] | stability in human liver S9 fraction [2] | LC50 MRC-5 ([1]; MTS assay, 24 h exposure in DMEM, concentration killing 50% of cells) [µM] | time to complete eradication of bacteria (E. coli ATCC 25922) [h]
C[C@@H](c1ccccc1)N(CC(=O)N(CCCCN)CC(=O)N(CC(=O)N(CC(=O)N(CCCCN)CC(=O)N(CC(=O)N(CC(=O)N(CCCCN)CC(=O)N(CCc1c[nH]c2ccccc12)CC(=O)N(CCc1c[nH]c2ccccc12)CC(N)=O)[C@@H](C)c1ccccc1)[C@@H](C)c1ccccc1)[C@@H](C)c1ccccc1)[C@@H](C)c1ccccc1)C(=O)CN(C(=O)CNCCCCN)[C@@H](C)c1ccccc1 [peptoid 11] (H-[Nlys][Nspe][Nspe][Nlys][Nspe][Nspe][Nlys][Nspe][Nspe][Nlys][Gly(N(CH2)2(3-indolyl))][Gly(N(CH2)2(3-indolyl))]-NH2) | 6.9 | 3.1 to 6.3 |  |  | 
C[C@@H](c1ccccc1)N(CC(N)=O)C(=O)CN(C(=O)CN(CCCCN)C(=O)CN(C(=O)CN(C(=O)CN(CCCCN)C(=O)CN(C(=O)CN(C(=O)CN(CCCCN)C(=O)CN(C(=O)CN(C(=O)CNCCCCN)[C@@H](C)c1ccccc1)[C@@H](C)c1ccccc1)[C@@H](C)c1ccccc1)[C@@H](C)c1ccccc1)[C@@H](C)c1ccccc1)[C@@H](C)c1ccccc1)[C@@H](C)c1ccccc1 [peptoid 1, reference compound] (H-[Nlys][Nspe][Nspe][Nlys][Nspe][Nspe][Nlys][Nspe][Nspe][Nlys][Nspe][Nspe]-NH2) |  |  | superior stability | 8.1 | 
C[C@@H](c1ccccc1)N(CC(=O)N(CCCCN)CC(=O)N(CCc1c[nH]c2ccccc12)CC(=O)N(CCc1c[nH]c2ccccc12)CC(N)=O)C(=O)CN(CCCCN)C(=O)CN(CCCCN)C(=O)CN(C(=O)CN(C(=O)CN(CCCCN)C(=O)CN(C(=O)CN(C(=O)CNCCCCN)[C@@H](C)c1ccccc1)[C@@H](C)c1ccccc1)[C@@H](C)c1ccccc1)[C@@H](C)c1ccccc1 [peptoid 29] (H-[Nlys][Nspe][Nspe][Nlys][Nspe][Nspe][Nlys][Nlys][Nspe][Nlys][Gly(N(CH2)2(3-indolyl))][Gly(N(CH2)2(3-indolyl))]-NH2) |  | 3.1 to 6.3 | superior stability |  | 4

From paper PMC10460844, “Real‐Time Monitoring of Multitarget Antimicrobial Mechanisms of Peptoids Using Label‐Free Imaging with Optical Diffraction Tomography” (Advanced Science, 2023)
